Data as given in patent US7884115B2, “Methods and compositions for the treatment of pain and other neurological conditions” (Allergan, Inc., priority 2004, dated 2011).
“Also recorded” adds a separate entry of the source.

Legend:
[1] = test system: primary rat brain cortical neurons treated with kainate; assay: Kainate-induced excitotoxicity in primary cortical neurons (LDH release); format: cell-based
Method: (§1) Primary rat brain cortical neurons were cultured as follows. In brief, rat cerebral cortices were removed from brains of the 16 day-old-fetal rats. The neocortices were gently triturated and plated on 24 well plates (300,000 viable cells/cm2) in plating Modified Eagle's Medium (MEM) supplemented with 10% horse serum, 10% fetal calf serum and 2 mM L-glutamine. Cultures were maintained at 37 C in a humidified 5% CO2 atmosphere.
(§2) After 4 days' growth (DIV 4), half of the medium was replaced by a medium identical to the plating medium but lacking calf serum. At DIV4, 10 μM 5-fluoro-2-deoxyuridine was included to each well to halt overgrowth of glia. Mixed cultures of neurons and glia were then fed at DIV7 and DIV11 with MEM plus 5% horse serum previously conditioned by growth with cortical astrocytes for 24 h.
Excitotoxicity was induced in these cells by addition of 50 μM kainate or 20 μM N-methyl-D-aspartate plus 10 μM D-serine to each well.
(§3) Under the experimental conditions used, i.e. after 6 hours addition of excitotoxic agent, 40% toxicity is generally observed and measured by determination of the amount of lactate dehydrogenase (LDH) released into the medium following membrane degradation. Such assay methods are well-known; a kit for conducting a homogeneous form of the LDH assay format is sold by Promega under the name CytoTox ONE® Homogenous Membrane Integrity Assay. Overall cell injury was assessed microscopically under phase-contrast optics or by measuring amount of LDH released into the bathing medium 24 hr after neurotoxic insults (see, e.g., Koh and Choi, J. NEUROSCI. METHODS 20: 83-90, 1987), hereby incorporated by reference herein.
[…] The final results are normalized optical density (OD) values (treated cells/untreated control cells), where a value of 1 represents 100% neuronal survival and a value of 0.6 represents 60% survival.

[2] = test system: primary rat brain cortical neurons treated with NMDA plus D-serine; assay: NMDA/serine-induced excitotoxicity in primary cortical neurons (LDH release); format: cell-based; settings: 20 μM NMDA plus 10 μM D-serine, 3 h or 16 h preincubation; FIGS. 8A and 8B
Method: as §1
as §2, with “h. […]” for “h.”
as §3, with “Such assay methods are well-known; a kit for conducting a homogeneous form of the LDH assay format is sold by Promega under the name CytoTox ONE® Homogenous Membrane Integrity Assay.” left out, “herein. […]” for “herein.”

[3] = test system: tactile allodynia in ligated Chung rats; assay: Chung model (spinal nerve ligation, tactile allodynia, von Frey hairs); format: in vivo; settings: Chung rat, 30 min after administration
Excerpt: One standard model for chronic pain involves the surgical ligation of the L5 (and optionally the L6) spinal nerves on one side in experimental animals. Rats recovering from the surgery gain weight and display a level of general activity similar to that of normal rats. However, these rats develop abnormalities of the foot, wherein the hindpaw is moderately everted and the toes are held together. More importantly, the hindpaw on the side affected by the surgery appears to become sensitive to pain from low-threshold mechanical stimuli, such as that producing a faint sensation of touch in a human, within about 1 week following surgery. […]
Tactile allodynia is measured prior to and 30 minutes after drug administration using von Frey hairs that are a series of fine hairs with incremental differences in stiffness. […] The applied force has been calculated to range from 0.41 to 15.1 grams. […] The 50% paw withdrawal threshold is determined using the method of Dixon, W. J., Ann. […] The post-drug threshold is compared to the pre-drug threshold and the percent reversal of tactile sensitivity is calculated based on a normal threshold of 15.1 grams.
Control rats are given the vehicle alone. Thirty (30) minutes following administration rats are brushed with Von Freys hairs and tactile allodynia is measured using the method of Dixon, as described above. […]

[4] = cited from earlier work
[5] = test system: primary rat brain cortical neurons; assay: Intrinsic cytotoxicity in neuronal cultures; format: cell-based
Method: as §1, §2
as §3, with “Such assay methods are well-known; a kit for conducting a homogeneous form of the LDH assay format is sold by Promega under the name CytoTox ONE® Homogenous Membrane Integrity Assay.” left out, “herein. […]” for “herein.”

Row | SMILES | attenuation of kainate-induced excitotoxicity ([1]; 50 μM kainate, compound added without pre-incubation, FIG. 7A) | neuronal death ([1]; kainate-induced toxicity, various concentrations) | neuronal death [2] | analgesic activity (allodynic reversal) ([3]; 1 mg/kg and 3 mg/kg intraperitoneally, FIG. 5) | aqueous solubility [4] | intrinsic cytotoxicity [5] | reversal of induced allodynia (reduction in allodynic response to Von Freys hair stimulus) ([3]; 1 mg/kg intraperitoneally, FIG. 6)
1 | CCCCN1C[C@H](O)[C@@H](O)[C@H](O)[C@H]1CO [NB-DNJ, N-butyl-1-deoxy-nojirimycin] | attenuation of kainate-induced excitotoxicity; also recorded: active without any preincubation | reduced neuronal death in a dose-dependent manner | reduced neuronal death in a dose-dependent manner | analgesic | greater than 1000 mg/ml | do not show any significant intrinsic cytotoxicity | –
2 | O=C(O)[C@H]1NC(=O)[C@H](O)[C@@H](O)[C@@H]1O [D-glucaro-delta-lactam] | – | – | – | – | – | – | approximately 70%
